Earlier results, collected in US20140294790A1, “METHOD OF PREVENTING, CONTROLLING AND AMELIORATING URINARY TRACT INFECTIONS AND SUPPORTING DIGESTIVE HEALTH BY USING A SYNERGISTIC CRANBERRY DERIVATIVE, A D-MANNOSE COMPOSITION AND A PROPRIETARY PROBIOTIC BLEND” (U.S. NUTRACEUTICALS, LLC d/b/a Valensa International, priority 2008, published 2014).

Measured: antibacterial activity

acidophilin
demonstrated activity: Bacillus subtilis | Clostridium perfringens | Escherichia coli | Salmonella enteritidis | Salmonella typhimurium | Staphylococcus aureus
